Assay results as given in US20240217946A1, “ANTIDEPRESSANT AND ANXIOLYTIC SUBSTITUTED CINNAMAMIDE COMPOUND” (TASLY PHARMACEUTICAL GROUP CO., LTD., priority 2021, published 2024).

How the values were obtained:
ICR mice = experiment: Elevated plus maze experiment in mice, single administration; format: in vivo; conditions: for OE % / OT %: comparative study (Table 13), 20 mg/kg i.g., 30 min after single administration; for anxiolytic activity in elevated plus maze vs solvent control group: comparative study, single intragastric administration of 20 mg/kg
Procedure: 50 male ICR mice were randomly divided into 5 groups (a solvent control group, estazolam group, M2 high dosage group, M2 medium dosage group, M2 low dosage group), with 10 mice in each group. The compound M2 high, medium and low dosage groups were intragastrically administered at 20 mg/kg. 10 mg/kg and 5 mg/kg, respectively; the positive drug estazolam was intragastrically administered at 2.5 mg/kg; and the solvent control group was gavaged with an equal volume of solvent. Behavior test was performed in each group 30 min after single administration. The experiments were required to be conducted between 8:00 am and […], and all animals entered the test laboratory on the previous day.
The laboratory was dimly lit (with the lowest brightness that can distinguish the subtle activities of mice at a distance of 1.5 m) and the brightness was kept constant, with a room temperature of about 20° C., and kept quiet. Before the maze test, each mouse was placed in a 35 cm*10 cm*5 cm plastic box and left to explore freely for 5 min and then quickly placed at the central platform of an elevated plus maze, with its head facing one of the open arms, and the following indexes were recorded upon release. Each mouse was tested for 5 min. Observers observed and recorded animal activities at a distance of 1.5 m. At intervals, the maze was wiped with a wet cloth to remove feces, and then wiped with a dry cloth before a next mouse was tested.
• (1) The number of open arm entries (OE): the number of entries into any open arm, based on the fact that all four claws of the mouse entered the arm, and a complete exit of one claw from the arm indicated the completion of the entry activity; • (2) open arm time (OT): the time of entering an open arm, with the unit of seconds; • (3) the number of close arm entries (CE): the number of entries into any close arm, based on the fact that all four claws of the mouse entered the arm; • (4) close arm time (CT): the time of entering a close arm, with the unit of seconds; • (5) percentage of open arm time: OT %=OT/(OT+CT)*100%; and • (6) percentage of open arm entries: OE %=OE/(OE+CE)*100%.
70 male ICR mice were randomly divided into 7 groups (a solvent control group, estazolam group, compound M2 group, compound II-3 group, compound II-4 group, compound II-5 group, and compound II-10 group), with 10 mice in each group. The dosage of M2 and its four structurally similar compounds was determined as 20 mg/kg according to the experimental results of 3.1: the positive drug estazolam was administered intragastrically at 2.5 mg/kg; and the solvent control group was gavaged with an equal volume of solvent. Behavior test was performed in each group 30 min after single administration. The experiments were required to be conducted between 8:00 am and […], and all animals entered the test laboratory on the previous day.
The behavioral test method and behavioral observation indexes were the same as those in 3.1.
(§1) Data was expressed as mean±standard (mean±SD) difference, and statistics of data differences were made by one-way analysis of variance (ANOVA) or nonparametric test, and differences between groups were determined by P<0.05.

SD rats = experiment: Vogel drinking conflict experiment in rats, single administration; format: in vivo; conditions: for Number of times of drinking water: 10 mg/kg i.g., 30 min after single dose, punishment stage 3 min, n = 8
Procedure: 75 male SD rats, with the body weight of 180-220 g, were fed adaptively for 1 week, water deprived for 24 h for training period test. The animals screened to be qualified were randomly divided into 7 groups (a solvent control group, estazolam group, compound M2 group, compound II-3 group, compound II-4 group, compound II-5 group and compound II-10 group) according to their body weight, with 8 rats in each group. […] results of 3.1: the positive drug estazolam was administered intragastrically at 1.24 mg/kg; and the solvent control group was gavaged with an equal volume of solvent. The grouped animals were continued to be water deprived for 24 h and were given a single dose, and tested in a punishment experiment 30 min after the single dose.
The experiment was carried out in two stages. The first stage is a training stage, in which 24 h after water deprivation, animals were placed in an operation box separately, and were allowed to fully explore until they found the bottle mouth and started to lick water (with an intensity of electric shock being 0 mA), a counter automatically recorded the number of licks within 3 min, and the animals that licked water less than 300 times were eliminated.
Observation index: the number of water licks of rats in the punishment stage.
as §1

mice [1] = conditions: 10 mg/kg continuously for 7 days; cited from earlier work
mice [2] = conditions: Patent C; cited from earlier work
mice [3] = conditions: 10 mg/kg for 7 days; cited from earlier work
mice [4] = conditions: mouse, in vivo; cited from earlier work

| Compound | OE % (ICR mice) | OT % (ICR mice) | anxiolytic activity in elevated plus maze vs solvent control group (ICR mice) | Number of times of drinking water (SD rats) | reserpine-induced body temperature decrease and akinesia in mice, degree of eye closure (mice [1]) | effective anxiolytic dosage in mice elevated plus maze experiment (mice [2]) | anxiolytic activity in drinking conflict experiment vs solvent control group (SD rats; single intragastric administration of 20 mg/kg) | immobility time of tail suspension in mice (mice [3]) | immobility time of forced swimming in mice (mice [4]) |
| --- | --- | --- | --- | --- | --- | --- | --- | --- | --- |
| CC(C)CNC(=O)/C=C/c1cc(Cl)c2c(c1)OCO2 [Compound II-4] | 46.79 ± 9.31 % | 53.45 ± 8.33 % | significant anxiolytic activity | 387.07 ± 57.31 | significantly antagonizing | 10 mg/kg | – | – | – |
| O=C(/C=C/c1cc2c(c(C(F)(F)F)c1)OCO2)N1CCCCC1 [Compound II-10] | 50.00 ± 10.23 % | 52.08 ± 12.25 % | significant anxiolytic activity | 499.61 ± 133.93 | significantly antagonizing | – | significant anxiolytic activity | significantly shorten the immobility time | significantly shorten the immobility time |
